Data from US9963467B2, “Boronic acid derivatives and therapeutic uses thereof” (Rempex Pharmaceuticals, Inc., priority 2014, dated 2018).

How the values were obtained:
ECL1002 [1] = assay: Tigemonam potentiation (MPC@4), ECL1002; format: cell-based; conditions: BLI with tigemonam at 4 μg/mL
SHV-12 = SHV-12 (Klebsiella pneumoniae, UniProt P0AD64, E235K/G234S/L31Q); assay: Ki, nitrocefin cleavage by purified enzyme, SHV-12; format: biochemical; conditions: nitrocefin reporter substrate; read-out: Ki (SHV-12, NCF)
How it was run: (§1)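 Purified enzyme was preincubated with a range of inhibitor concentrations in reaction buffer for 10 min at room temperature. Nitrocefin was then added and its cleavage followed at 490 nm every 10 sec for 10 min.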

Pa AmpC = Pa AmpC (Pseudomonas aeruginosa, UniProt P24735); assay: Ki, nitrocefin cleavage by purified enzyme, Pa AmpC; format: biochemical; conditions: nitrocefin reporter substrate; read-out: Ki (Pa AmpC, NCF)
How it was run: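 Preincubation 10 min RT, purified enzyme with inhibitor series in reaction buffer; reporter nitrocefin; kinetic A490, 10-sec intervals, 10 min; Ki calculated.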

ECL1002 [2] = assay: Aztreonam potentiation (MPC@4), ECL1002; format: cell-based; conditions: BLI with aztreonam at 4 μg/mL
KP1010 (SHV-12) = assay: Tigemonam potentiation (MPC@4), KP1010; format: cell-based
OXA-48 = OXA-48 (Klebsiella pneumoniae, UniProt Q6XEC0); assay: Ki, nitrocefin cleavage by purified enzyme, OXA-48; format: biochemical; conditions: nitrocefin reporter substrate; read-out: Ki (OXA-48, NCF)
How it was run: as §1

ec302 (TEM-10) [3] = assay: Aztreonam potentiation (MPC@4), ec302; format: cell-based; conditions: BLI with aztreonam at 4 μg/mL
KP1004 (KPC-2) [4] = assay: Aztreonam potentiation (MPC@4), KP1004; format: cell-based; conditions: BLI with aztreonam at 4 μg/mL
KPC-2 = KPC-2 (Klebsiella pneumoniae, UniProt Q9F663); assay: Ki, nitrocefin cleavage by purified enzyme, KPC-2; format: biochemical; conditions: nitrocefin reporter substrate; read-out: Ki (KPC-2, NCF)
How it was run: as §1

EC1010 (CMY-6) [5] = assay: organism not typed; format: cell-based
KP1004 (KPC-2) [6] = assay: Biapenem potentiation (MPC@1), KP1004; conditions: BLI with biapenem at 1 μg/mL
KP1005 (CTX-M-14) [7] = assay: Tigemonam potentiation (MPC@4), KP1005; format: cell-based; conditions: BLI with tigemonam at 4 μg/mL
CTX-M-14 = CTX-M-14 (Escherichia coli, UniProt Q9L5C7); assay: Ki, nitrocefin cleavage by purified enzyme, CTX-M-14; format: biochemical; conditions: nitrocefin reporter substrate; read-out: Ki (CTX-M-14, NCF)
How it was run: as §1

ec308 (SHV-5) = assay: Tigemonam potentiation (MPC@4), ec308; format: cell-based
KP1009 (CTX-M-15) [8] = assay: Tigemonam potentiation (MPC@4), KP1009; format: cell-based; conditions: BLI with tigemonam at 4 μg/mL
KP1009 (CTX-M-15) [9] = assay: organism not typed; format: cell-based
P99 = P99 (Enterobacter cloacae, UniProt P05364); assay: Ki, nitrocefin cleavage by purified enzyme, P99; format: biochemical; conditions: nitrocefin reporter substrate; read-out: Ki (P99, NCF)
How it was run: as §1

EC1010 (CMY-6) [10] = assay: Tigemonam potentiation (MPC@4), EC1010; format: cell-based; conditions: BLI with tigemonam at 4 μg/mL
ec302 (TEM-10) [11] = assay: Tigemonam potentiation (MPC@4), ec302; format: cell-based
KP1086 (OXA-48) = assay: Biapenem potentiation (MPC@1), KP1086; conditions: BLI with biapenem at 1 μg/mL
KP1005 (CTX-M-14) [12] = assay: Aztreonam potentiation (MPC@4), KP1005; format: cell-based; conditions: BLI with aztreonam at 4 μg/mL
[13] = Monomer content of pH adjusted aqueous solutions (LC-UV); format: physicochemical; conditions: 1 mg/mL aqueous salt solution, pH adjusted to 7.6 to 8, LC-UV
Procedure: Boronic acid containing compounds are known to undergo oligomerization. The presence of oligomers can greatly complicate drug development, as they represent new chemical species whose content must be controlled and qualified by testing in toxoicology studies. The monomer content of compounds was evaluated by adjusting aqueous solutions to physiological pH at various concentrations. The monomer content of pH adjusted solutions was measured using LC-UV. Test compounds were weighed out into a 1.5 mL Eppendorf tube. A solution of water was prepared in 1.00 mg/mL, 10.0 mg/mL or 100 mg/mL concentrations of the compound based on active fraction. A volume 20 uL was subtracted to allow room for addition of acid or base to adjust pH. The solution pH was measured. The pH was then adjusted through addition of acid or base as necessary until the reading was in the 7.6 to 8 range. A final pH measurement was made after ensuring all the compound was in solution. The solution was injected onto LC-UV in 0.1 uL to 5 uL volume within less than half an hour after the time the sample was prepared. Elution was done using 0.1% TFA in water for mobile phase A and 0.085% TFA in methanol for mobile phase B on an Excel ACE 5 Super C18 2.1×100 mm column at 0.6 ml/min flow rate with 9 min gradient, 3.9 minute hold at 90% B and 18 minute run time. The absorption was measured at 220, 254 and 300 nm with a 4 nm bandwidth.

Chain of P99 (P05364 21-381): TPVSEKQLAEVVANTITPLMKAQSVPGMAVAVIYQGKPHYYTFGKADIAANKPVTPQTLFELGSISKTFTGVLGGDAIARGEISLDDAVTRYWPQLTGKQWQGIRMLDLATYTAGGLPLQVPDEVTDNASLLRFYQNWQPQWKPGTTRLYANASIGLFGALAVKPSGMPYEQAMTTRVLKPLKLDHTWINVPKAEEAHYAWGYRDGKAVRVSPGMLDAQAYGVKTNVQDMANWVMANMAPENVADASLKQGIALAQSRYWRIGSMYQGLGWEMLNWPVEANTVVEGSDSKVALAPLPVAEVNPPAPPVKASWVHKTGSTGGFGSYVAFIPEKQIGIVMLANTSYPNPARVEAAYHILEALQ
Chain of SHV-12 (P0AD64 22-286 L31Q/G234S/E235K): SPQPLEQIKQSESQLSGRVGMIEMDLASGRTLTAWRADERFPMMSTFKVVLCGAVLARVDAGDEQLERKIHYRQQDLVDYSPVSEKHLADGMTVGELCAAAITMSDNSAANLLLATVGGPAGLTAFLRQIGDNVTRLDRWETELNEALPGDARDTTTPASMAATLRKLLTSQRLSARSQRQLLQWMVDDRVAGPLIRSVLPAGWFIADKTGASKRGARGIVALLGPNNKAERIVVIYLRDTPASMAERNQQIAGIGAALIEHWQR
Chain of Pa AmpC (P24735 27-397): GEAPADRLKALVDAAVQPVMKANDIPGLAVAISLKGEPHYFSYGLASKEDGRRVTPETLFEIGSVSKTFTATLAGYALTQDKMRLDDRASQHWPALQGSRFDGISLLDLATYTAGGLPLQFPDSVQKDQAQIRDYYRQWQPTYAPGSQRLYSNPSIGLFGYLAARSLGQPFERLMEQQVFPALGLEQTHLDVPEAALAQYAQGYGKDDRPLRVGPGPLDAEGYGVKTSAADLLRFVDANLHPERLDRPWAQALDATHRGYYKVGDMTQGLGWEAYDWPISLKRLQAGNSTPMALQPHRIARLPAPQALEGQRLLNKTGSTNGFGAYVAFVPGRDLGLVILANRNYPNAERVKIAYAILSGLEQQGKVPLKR
Chain of KPC-2 (Q9F663 25-293, looked up, species assumed): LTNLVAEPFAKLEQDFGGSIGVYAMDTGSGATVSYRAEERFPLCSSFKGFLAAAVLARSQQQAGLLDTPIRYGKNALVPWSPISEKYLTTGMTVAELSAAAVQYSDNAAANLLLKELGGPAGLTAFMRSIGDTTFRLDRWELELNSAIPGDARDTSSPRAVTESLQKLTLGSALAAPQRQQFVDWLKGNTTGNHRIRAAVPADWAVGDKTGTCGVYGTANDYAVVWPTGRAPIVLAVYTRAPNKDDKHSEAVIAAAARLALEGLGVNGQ
Chain of CTX-M-14 (Q9L5C7 29-291): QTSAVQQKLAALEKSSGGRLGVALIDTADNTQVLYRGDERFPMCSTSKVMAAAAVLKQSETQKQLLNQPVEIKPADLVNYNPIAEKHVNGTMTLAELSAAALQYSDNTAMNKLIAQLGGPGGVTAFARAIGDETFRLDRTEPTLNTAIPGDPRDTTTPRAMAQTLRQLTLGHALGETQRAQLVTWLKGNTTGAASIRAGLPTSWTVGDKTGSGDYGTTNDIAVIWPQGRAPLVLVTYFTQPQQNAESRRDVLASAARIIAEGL
Chain of OXA-48 (Q6XEC0 23-265, looked up, species assumed): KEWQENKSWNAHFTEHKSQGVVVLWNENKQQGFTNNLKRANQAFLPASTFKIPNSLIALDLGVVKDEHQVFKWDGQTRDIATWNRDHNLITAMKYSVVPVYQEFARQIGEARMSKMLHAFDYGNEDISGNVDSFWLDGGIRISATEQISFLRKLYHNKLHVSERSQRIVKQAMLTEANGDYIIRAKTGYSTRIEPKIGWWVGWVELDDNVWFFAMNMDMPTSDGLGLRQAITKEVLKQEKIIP

Structure (SMILES) | TIG MPC4 ECL1002 (ECL1002 [1]) | Ki (SHV-12) | Ki (Pa AmpC) | AZT MPC4 ECL1002 (ECL1002 [2]) | TIG MPC4 SHV-12 KP1010 (KP1010 (SHV-12)) | Ki (OXA-48) | AZT MPC4 TEM-10 ec302 (ec302 (TEM-10) [3]) | AZT MPC4 KPC-2 KP1004 (KP1004 (KPC-2) [4]) | Ki (KPC-2) | AZT MPC4 CMY-6 EC1010 (EC1010 (CMY-6) [5]) | BPM MPC1 KP1004 KPC-2 (KP1004 (KPC-2) [6]) | TIG MPC4 CTX-M-14 KP1005 (KP1005 (CTX-M-14) [7]) | Ki (CTX-M-14) | TIG MPC4 SHV-5 ec308 (ec308 (SHV-5)) | TIG MPC4 CTX-M-15 KP1009 (KP1009 (CTX-M-15) [8]) | AZT MPC4 CTX-M-15 KP1009 (KP1009 (CTX-M-15) [9]) | Ki (P99) | TIG MPC4 CMY-6 EC1010 (EC1010 (CMY-6) [10]) | TIG MPC4 TEM-10 ec302 (ec302 (TEM-10) [11]) | BPM MPC1 OXA-48 KP1086 (KP1086 (OXA-48)) | also measured
CS(=O)(=O)CC(=O)N[C@H]1Cc2ccc(F)c(C(=O)O)c2OB1O [Compound 9, (R)-7-fluoro-2-hydroxy-3-(2-(methylsulfonyl)acetamido)-3,4-dihydro-2H-benzo[e][1,2]oxaborinine-8-carboxylic acid] | X (MIC of less than 1 μg/mL) | < 1 nM | > 10 nM | Y (MIC of 1 μg/mL to 10 μg/mL) | X (key: X: MIC of less than 1 μg/mL; Y: MIC of 1 μg/mL to 10 μg/mL; Z: MIC of greater than 10 μg/mL) | > 10 nM | Y (MIC of 1 μg/mL to 10 μg/mL) | Y (MIC of 1 μg/mL to 10 μg/mL) | > 10 nM | Y (key: X: MIC of less than 1 ng/mL; Y: MIC of 1 μg/mL to 10 μg/mL; Z: MIC of greater than 10 μg/mL) | X (MIC of less than 1 μg/mL) | Y (MIC of 1 μg/mL to 10 μg/mL) | 1 to 10 nM | X (key: X: MIC of less than 1 μg/mL; Y: MIC of 1 μg/mL to 10 μg/mL; Z: MIC of greater than 10 μg/mL) | Y (MIC of 1 μg/mL to 10 μg/mL) | Y (key: X: MIC of less than 1 ng/mL; Y: MIC of 1 μg/mL to 10 μg/mL; Z: MIC of greater than 10 μg/mL) | > 10 nM | X (MIC of less than 1 μg/mL) | Z (key: X: MIC of less than 1 ng/mL; Y: MIC of 1 μg/mL to 10 μg/mL; Z: MIC of greater than 10 μg/mL) | Z (MIC of greater than 10 μg/mL) | AZT MPC4 CTX-M-14 KP1005 (KP1005 (CTX-M-14) [12]): Y (MIC of 1 μg/mL to 10 μg/mL)
CSCC(=O)N[C@H]1Cc2ccc(Sc3nnc(N)s3)c(C(=O)O)c2OB1O [Compound 21, (R)-7-(5-amino-1,3,4-thiadiazol-2-ylthio)-2-hydroxy-3-(2-(methylthio)acetamido)-3,4-dihydro-2H-benzo[e][1,2]oxaborinine-8-carboxylic acid] | Y (MIC of 1 μg/mL to 10 μg/mL) | < 1 nM | > 10 nM | Y (MIC of 1 μg/mL to 10 μg/mL) | X (key: X: MIC of less than 1 μg/mL; Y: MIC of 1 μg/mL to 10 μg/mL; Z: MIC of greater than 10 μg/mL) | < 1 nM | Y (MIC of 1 μg/mL to 10 μg/mL) | Y (MIC of 1 μg/mL to 10 μg/mL) | > 10 nM | Y (key: X: MIC of less than 1 ng/mL; Y: MIC of 1 μg/mL to 10 μg/mL; Z: MIC of greater than 10 μg/mL) | Y (MIC of 1 μg/mL to 10 μg/mL) | Y (MIC of 1 μg/mL to 10 μg/mL) | < 1 nM | X (key: X: MIC of less than 1 μg/mL; Y: MIC of 1 μg/mL to 10 μg/mL; Z: MIC of greater than 10 μg/mL) | Y (MIC of 1 μg/mL to 10 μg/mL) | Y (key: X: MIC of less than 1 ng/mL; Y: MIC of 1 μg/mL to 10 μg/mL; Z: MIC of greater than 10 μg/mL) | > 10 nM | Y (MIC of 1 μg/mL to 10 μg/mL) | Y (key: X: MIC of less than 1 ng/mL; Y: MIC of 1 μg/mL to 10 μg/mL; Z: MIC of greater than 10 μg/mL) | Z (MIC of greater than 10 μg/mL) | % Monomer in 1 mg/mL salt solution [13]: 98.1%; AZT MPC4 CTX-M-14 KP1005 (KP1005 (CTX-M-14) [12]): Y (MIC of 1 μg/mL to 10 μg/mL)
CSCC(=O)N[C@H]1Cc2ccc(OCC(=O)O)c(C(=O)O)c2OB1O [Compound 33, (R)-7-(carboxymethoxy)-2-hydroxy-3-(2-(methylthio)acetamido)-3,4-dihydro-2H-benzo[e][1,2]oxaborinine-8-carboxylic acid] | Y (MIC of 1 μg/mL to 10 μg/mL) | < 1 nM | > 10 nM | Y (MIC of 1 μg/mL to 10 μg/mL) | X (key: X: MIC of less than 1 μg/mL; Y: MIC of 1 μg/mL to 10 μg/mL; Z: MIC of greater than 10 μg/mL) | < 1 nM | Y (MIC of 1 μg/mL to 10 μg/mL) | Y (MIC of 1 μg/mL to 10 μg/mL) | > 10 nM | Y (key: X: MIC of less than 1 ng/mL; Y: MIC of 1 μg/mL to 10 μg/mL; Z: MIC of greater than 10 μg/mL) | X (MIC of less than 1 μg/mL) | Y (MIC of 1 μg/mL to 10 μg/mL) | < 1 nM | Y (key: X: MIC of less than 1 ng/mL; Y: MIC of 1 μg/mL to 10 μg/mL; Z: MIC of greater than 10 μg/mL) | Y (MIC of 1 μg/mL to 10 μg/mL) | Y (key: X: MIC of less than 1 ng/mL; Y: MIC of 1 μg/mL to 10 μg/mL; Z: MIC of greater than 10 μg/mL) | > 10 nM | Y (MIC of 1 μg/mL to 10 μg/mL) | Z (key: X: MIC of less than 1 ng/mL; Y: MIC of 1 μg/mL to 10 μg/mL; Z: MIC of greater than 10 μg/mL) | Z (MIC of greater than 10 μg/mL) | AZT MPC4 CTX-M-14 KP1005 (KP1005 (CTX-M-14) [12]): Y (MIC of 1 μg/mL to 10 μg/mL)
CSCC(=O)N[C@H]1Cc2ccc(Sc3nncn3C)c(C(=O)O)c2OB1O [Compound 35, (R)-2-hydroxy-7-(4-methyl-4H-1,2,4-triazol-3-ylthio)-3-(2-(methylthio)acetamido)-3,4-dihydro-2H-benzo[e][1,2]oxaborinine-8-carboxylic acid] | Y (MIC of 1 μg/mL to 10 μg/mL) | < 1 nM | > 10 nM | Y (MIC of 1 μg/mL to 10 μg/mL) | X (key: X: MIC of less than 1 μg/mL; Y: MIC of 1 μg/mL to 10 μg/mL; Z: MIC of greater than 10 μg/mL) | < 1 nM | Y (MIC of 1 μg/mL to 10 μg/mL) | Y (MIC of 1 μg/mL to 10 μg/mL) | > 10 nM | Y (key: X: MIC of less than 1 ng/mL; Y: MIC of 1 μg/mL to 10 μg/mL; Z: MIC of greater than 10 μg/mL) | X (MIC of less than 1 μg/mL) | Y (MIC of 1 μg/mL to 10 μg/mL) | < 1 nM | X (key: X: MIC of less than 1 μg/mL; Y: MIC of 1 μg/mL to 10 μg/mL; Z: MIC of greater than 10 μg/mL) | Y (MIC of 1 μg/mL to 10 μg/mL) | Y (key: X: MIC of less than 1 ng/mL; Y: MIC of 1 μg/mL to 10 μg/mL; Z: MIC of greater than 10 μg/mL) | > 10 nM | Y (MIC of 1 μg/mL to 10 μg/mL) | Y (key: X: MIC of less than 1 ng/mL; Y: MIC of 1 μg/mL to 10 μg/mL; Z: MIC of greater than 10 μg/mL) | Z (MIC of greater than 10 μg/mL) | AZT MPC4 CTX-M-14 KP1005 (KP1005 (CTX-M-14) [12]): Y (MIC of 1 μg/mL to 10 μg/mL)
